Laboratory results from US20210395239A1 (Hoffmann-La Roche Inc., priority 2018, published 2021).
Each block holds one compound with its values, some of them ahead of it.

Experiments:
CYP2C9 = biological target: T1, CYP2C9 (Homo sapiens, UniProt P11712); experiment: CYP inhibition assay in human liver microsome, CYP2C9; type: in vitro ADME; conditions: substrate diclofenac 5 μM, first value of 2C9/2D6/3A4; for inhibition at 5 min, 10 µM: human, human liver microsomes, probe diclofenac 5 μM
T1 construct: tissue BD-Gentest 452117; host or cells: human liver microsomes
Summary of the method: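 Pooled human liver microsomes with a substrate for each CYP were incubated with compound at 37 °C after NADPH addition, for 5 min (CYP2D6: 10 min), then quenched with acetonitrile containing labelled metabolite standards. Metabolite/internal-standard peak area ratios were measured by RapidFire MS/MS. % inhibition was scaled between DMSO and standard-inhibitor controls.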

hERG channel = biological target: T2, hERG channel (Homo sapiens, UniProt Q12809); experiment: hERG channel inhibition assay (patch-clamp, CHOhERG cells); type: cell-based; conditions: for IC20: human, CHO cells stably expressing hERG (CHOhERG); for IC20 / IC50: patch-clamp, CHOhERG cells; for hERG IC20/TLR7 IC50 / hERG IC20/TLR8 IC50 / hERG IC20/TLR9 IC50: safety ratio
T2 construct: expressed in transfected cells; host or cells: CHO (Chinese hamster ovary)
Summary of the method: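 Whole-cell voltage-clamp recordings used CHO cells stably expressing human hERG, with IKhERG evoked by a voltage protocol at 0.1 Hz. Increasing compound concentrations were applied, each for 3–10 min to reach steady state, and current amplitude and kinetics were expressed relative to control (100%).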

T2 sequence (Q12809 whole entry): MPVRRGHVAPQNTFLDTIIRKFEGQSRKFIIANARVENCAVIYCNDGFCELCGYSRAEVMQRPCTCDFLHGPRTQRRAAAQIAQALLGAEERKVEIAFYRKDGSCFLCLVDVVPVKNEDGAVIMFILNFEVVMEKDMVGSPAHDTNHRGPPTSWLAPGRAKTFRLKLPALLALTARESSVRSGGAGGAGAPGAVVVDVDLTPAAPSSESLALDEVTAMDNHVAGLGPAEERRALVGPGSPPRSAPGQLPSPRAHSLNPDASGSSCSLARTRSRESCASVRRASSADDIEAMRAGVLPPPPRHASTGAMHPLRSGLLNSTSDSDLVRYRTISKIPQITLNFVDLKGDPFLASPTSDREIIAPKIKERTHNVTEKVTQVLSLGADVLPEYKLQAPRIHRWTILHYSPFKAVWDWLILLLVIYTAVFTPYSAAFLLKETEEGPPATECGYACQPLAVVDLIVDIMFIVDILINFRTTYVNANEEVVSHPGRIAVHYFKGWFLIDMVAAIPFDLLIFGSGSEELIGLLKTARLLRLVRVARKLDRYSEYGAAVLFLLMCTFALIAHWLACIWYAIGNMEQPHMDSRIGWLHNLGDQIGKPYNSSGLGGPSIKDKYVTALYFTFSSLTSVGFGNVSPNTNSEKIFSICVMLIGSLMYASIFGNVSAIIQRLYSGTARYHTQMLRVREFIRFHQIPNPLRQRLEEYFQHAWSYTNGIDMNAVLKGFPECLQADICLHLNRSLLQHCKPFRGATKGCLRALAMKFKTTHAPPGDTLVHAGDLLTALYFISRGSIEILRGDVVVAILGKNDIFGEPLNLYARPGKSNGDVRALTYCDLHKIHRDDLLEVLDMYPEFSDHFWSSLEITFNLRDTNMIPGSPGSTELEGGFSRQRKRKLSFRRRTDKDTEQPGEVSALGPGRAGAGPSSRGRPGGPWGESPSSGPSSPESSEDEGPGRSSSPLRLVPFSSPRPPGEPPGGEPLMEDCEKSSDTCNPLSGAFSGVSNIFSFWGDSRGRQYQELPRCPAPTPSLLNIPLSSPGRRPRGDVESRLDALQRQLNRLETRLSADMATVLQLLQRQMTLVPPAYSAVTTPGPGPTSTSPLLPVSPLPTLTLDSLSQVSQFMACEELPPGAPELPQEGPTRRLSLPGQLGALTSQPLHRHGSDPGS
T1 sequence (P11712 whole entry): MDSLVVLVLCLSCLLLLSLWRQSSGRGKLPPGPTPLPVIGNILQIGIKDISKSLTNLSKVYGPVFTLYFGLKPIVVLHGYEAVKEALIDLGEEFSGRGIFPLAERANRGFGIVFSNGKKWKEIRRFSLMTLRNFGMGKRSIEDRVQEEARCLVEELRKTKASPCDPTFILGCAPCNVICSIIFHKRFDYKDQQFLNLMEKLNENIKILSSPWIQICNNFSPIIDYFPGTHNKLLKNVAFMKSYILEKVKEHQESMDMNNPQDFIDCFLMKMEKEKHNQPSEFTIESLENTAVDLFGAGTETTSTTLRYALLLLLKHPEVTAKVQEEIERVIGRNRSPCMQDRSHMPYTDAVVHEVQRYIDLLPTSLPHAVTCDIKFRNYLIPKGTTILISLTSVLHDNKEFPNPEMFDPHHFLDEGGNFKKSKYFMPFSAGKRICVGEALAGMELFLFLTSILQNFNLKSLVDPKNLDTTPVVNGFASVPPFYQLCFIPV

SMILES: COC1CNC[C@H]1Nc1cccc(N2CCN(C[C@H]3CN(c4ccc(C#N)c5ncccc45)C[C@@H](C)O3)CC2)n1 (stereo in doubt) [Example 39, 5-[(2S,6R)-2-[[4-[6-[[(3R,4R)-4-methoxypyrrolidin-3-yl]amino]-2-pyridyl]piperazin-1-yl]methyl]-6-methyl-morpholin-4-yl]quinoline-8-carbonitrile]
inhibition at 5 min, 10 µM (CYP2C9): 23%

SMILES: COC1CN(c2nccc(N3CCN(C[C@H]4CN(c5ccc(C#N)c6ncccc56)C[C@@H](C)O4)CC3)n2)C[C@H]1N (stereo in doubt) [Example 52, 5-[(2S,6R)-2-[[4-[2-[(3R,4R)-3-amino-4-methoxy-pyrrolidin-1-yl]pyrimidin-4-yl]piperazin-1-yl]methyl]-6-methyl-morpholin-4-yl]quinoline-8-carbonitrile]
CYP (%) 2C9 inhibition (CYP2C9): 3.5%

SMILES: CO[C@H]1CN(c2nccc(N3CCN(C[C@H]4CN(c5ccc(C#N)c6ncccc56)C[C@@H](C)O4)CC3)n2)CC1N (stereo in doubt) [Example 53, 5-[(2S,6R)-2-[[4-[2-[(3S,4S)-3-amino-4-methoxy-pyrrolidin-1-yl]pyrimidin-4-yl]piperazin-1-yl]methyl]-6-methyl-morpholin-4-yl]quinoline-8-carbonitrile]
CYP (%) 2C9 inhibition (CYP2C9): −4.5%

SMILES: C[C@@H]1CN(c2ccc(C#N)c3ncccc23)C[C@H](CN2CCN(c3cc(N4CCN(C)CC4)ncn3)CC2)O1 [Example 21, 5-[(2R,6S)-2-methyl-6-[[4-[6-(4-methylpiperazin-1-yl)pyrimidin-4-yl]piperazin-1-yl]methyl]morpholin-4-yl]quinoline-8-carbonitrile]
inhibition at 5 min, 10 µM (CYP2C9): -3%

SMILES: C[C@@H]1CN(c2ccc(C#N)c3ncccc23)C[C@H](CN2CCN(c3ccnc(N4CCN(C)CC4)n3)CC2)O1 [Example 22, 5-((2R,6S)-2-methyl-6-((4-(2-(4-methylpiperazin-1-yl)pyrimidin-4-yl)piperazin-1-yl)methyl)morpholino)quinoline-8-carbonitrile]
inhibition at 5 min, 10 µM (CYP2C9): 20%

SMILES: C[C@@H]1CN(c2ccc(C#N)c3ncccc23)C[C@H](CN2CCN(c3ccnc(N[C@H]4CNC[C@H]4F)n3)CC2)O1 [Example 24, 5-[(2S,6R)-2-[[4-[2-[[(3S,4R)-4-fluoropyrrolidin-3-yl]amino]pyrimidin-4-yl]piperazin-1-yl]methyl]-6-methyl-morpholin-4-yl]quinoline-8-carbonitrile]
inhibition at 5 min, 10 µM (CYP2C9): 3.5%

SMILES: C[C@@H]1CN(c2ccc(C#N)n3ncc(F)c23)C[C@H](CN2CCN(c3ccc(N[C@H]4CNC[C@H]4F)nc3)CC2)O1 [Example 167, 3-fluoro-4-[(2S,6R)-2-[[4-[6-[[(3S,4R)-4-fluoropyrrolidin-3-yl]amino]-3-pyridyl]piperazin-1-yl]methyl]-6-methyl-morpholin-4-yl]pyrazolo[1,5-a]pyridine-7-carbonitrile]
inhibition at 5 min, 10 µM (CYP2C9): -1%
IC20 (hERG channel): > 10 µM
IC50 (hERG channel): > 20 µM
hERG IC20/TLR7 IC50 (hERG channel): >714
hERG IC20/TLR8 IC50 (hERG channel): >294
hERG IC20/TLR9 IC50 (hERG channel): >217

SMILES: C[C@@H]1CN(c2ccc(C#N)n3ncc(F)c23)C[C@H](CN2CCN(c3ccc(N4C[C@H]5NCCO[C@@H]5C4)nc3)CC2)O1 [Example 168, 4-[(2S,6R)-2-[[4-[6-[(4aR,7aR)-3,4,4a,5,7,7a-hexahydro-2H-pyrrolo[3,4-b][1,4]oxazin-6-yl]-3-pyridyl]piperazin-1-yl]methyl]-6-methyl-morpholin-4-yl]-3-fluoro-pyrazolo[1,5-a]pyridine-7-carbonitrile]
inhibition at 5 min, 10 µM (CYP2C9): -8%
IC20 (hERG channel): 8.6 µM
IC50 (hERG channel): > 20 µM
hERG IC20/TLR7 IC50 (hERG channel): 430
hERG IC20/TLR8 IC50 (hERG channel): 150
hERG IC20/TLR9 IC50 (hERG channel): 74

SMILES: C[C@@H]1CN(c2ccc(C#N)n3ncc(F)c23)C[C@H](CN2CCN(c3ccc(N4CC5(CN(C)C5)C4)nc3)CC2)O1 [Example 170, 3-fluoro-4-[(2R,6S)-2-methyl-6-[[4-[6-(6-methyl-2,6-diazaspiro[3.3]heptan-2-yl)-3-pyridyl]piperazin-1-yl]methyl]morpholin-4-yl]pyrazolo[1,5-a]pyridine-7-carbonitrile]
inhibition at 5 min, 10 µM (CYP2C9): -1%

Continued, in another order:

inhibition at 5 min, 10 µM (CYP2C9): 2%
SMILES: C[C@@H]1CN(c2ccc(C#N)c3ncccc23)C[C@H](CN2CCN(c3cncc(N4CCNCC4)c3)CC2)O1 [Example 7, 5-[(2R,6S)-2-methyl-6-[[4-(5-piperazin-1-yl-3-pyridyl)piperazin-1-yl]methyl]morpholin-4-yl]quinoline-8-carbonitrile]
IC20 (hERG channel): > 10 µM
IC50 (hERG channel): > 20 µM
hERG IC20/TLR7 IC50 (hERG channel): >294
hERG IC20/TLR8 IC50 (hERG channel): >1111
hERG IC20/TLR9 IC50 (hERG channel): >196

inhibition at 5 min, 10 µM (CYP2C9): 1%
SMILES: C[C@@H]1CN(c2ccc(C#N)c3ncccc23)C[C@H](CN2CCN(c3ccc(N4CCNCC4)cn3)CC2)O1 [Example 8, 5-[(2R,6S)-2-methyl-6-[[4-(5-piperazin-1-yl-2-pyridyl)piperazin-1-yl]methyl]morpholin-4-yl]quinoline-8-carbonitrile]

inhibition at 5 min, 10 µM (CYP2C9): -7.5%
SMILES: C[C@@H]1CN(c2ccc(C#N)c3ncccc23)C[C@H](CN2CCN(c3cc(N4CCNCC4)ccn3)CC2)O1 [Example 9, 5-[(2R,6S)-2-methyl-6-[[4-(4-piperazin-1-yl-2-pyridyl)piperazin-1-yl]methyl]morpholin-4-yl]quinoline-8-carbonitrile]

inhibition at 5 min, 10 µM (CYP2C9): 0.5%
SMILES: C[C@@H]1CN(c2ccc(C#N)c3ncccc23)C[C@H](CN2CCC(C#N)(c3ccc(N4CCNCC4)cc3)CC2)O1 [Example 11, 5-[(2S,6R)-2-[[4-cyano-4-(4-piperazin-1-ylphenyl)-1-piperidyl]methyl]-6-methyl-morpholin-4-yl]quinoline-8-carbonitrile]

inhibition at 5 min, 10 µM (CYP2C9): 0%
SMILES: C[C@@H]1CN(c2ccc(C#N)c3ncccc23)C[C@H](CN2CCN(c3nccc(N4CCNCC4)n3)CC2)O1 [Example 14, 5-[(2R,6S)-2-methyl-6-[[4-(4-piperazin-1-ylpyrimidin-2-yl)piperazin-1-yl]methyl]morpholin-4-yl]quinoline-8-carbonitrile]

inhibition at 5 min, 10 µM (CYP2C9): 9%
SMILES: C[C@@H]1CN(c2ccc(C#N)c3ncccc23)C[C@H](CN2CCN(c3ccnc(N4CCNCC4)n3)CC2)O1 [Example 15, 5-[(2R,6S)-2-methyl-6-[[4-(2-piperazin-1-ylpyrimidin-4-yl)piperazin-1-yl]methyl]morpholin-4-yl]quinoline-8-carbonitrile]
IC20 (hERG channel): > 10 µM
IC50 (hERG channel): > 20 µM
hERG IC20/TLR7 IC50 (hERG channel): >1429
hERG IC20/TLR8 IC50 (hERG channel): >3333
hERG IC20/TLR9 IC50 (hERG channel): >278

inhibition at 5 min, 10 µM (CYP2C9): 11.5%
SMILES: C[C@@H]1CN(c2ccc(C#N)c3ncccc23)C[C@H](CN2CCN(c3ccc([C@@H]4CNCCO4)cc3)CC2)O1 [Example 19, 5-[(2R,6S)-2-methyl-6-[[4-[4-[(2R)-morpholin-2-yl]phenyl]piperazin-1-yl]methyl]morpholin-4-yl]quinoline-8-carbonitrile]

inhibition at 5 min, 10 µM (CYP2C9): -5.5%
SMILES: C[C@@H]1CN(c2ccc(C#N)c3ncccc23)C[C@H](CN2CCN(c3ccnc(N4CCNCC(O)C4)n3)CC2)O1 (stereo partly drawn) [Example 25, 5-[(2S,6R)-2-[[4-[2-(6-hydroxy-1,4-diazepan-1-yl)pyrimidin-4-yl]piperazin-1-yl]methyl]-6-methyl-morpholin-4-yl]quinoline-8-carbonitrile]

inhibition at 5 min, 10 µM (CYP2C9): -2%
SMILES: C[C@@H]1CN(c2ccc(C#N)c3ncccc23)C[C@H](CN2CCN(c3ccnc(N4CCN[C@@H](CO)C4)n3)CC2)O1 [Example 29, 5-[(2S,6R)-2-[[4-[2-[(3R)-3-(hydroxymethyl)piperazin-1-yl]pyrimidin-4-yl]piperazin-1-yl]methyl]-6-methyl-morpholin-4-yl]quinoline-8-carbonitrile]

inhibition at 5 min, 10 µM (CYP2C9): 20%
SMILES: C[C@@H]1CN(c2ccc(C#N)c3ncccc23)C[C@H](CN2CCN(c3cccc(NC4CNC4)n3)CC2)O1 [Example 38]
IC20 (hERG channel): 5.5 µM
IC50 (hERG channel): > 20 µM
hERG IC20/TLR7 IC50 (hERG channel): 344
hERG IC20/TLR8 IC50 (hERG channel): 500
hERG IC20/TLR9 IC50 (hERG channel): 57

inhibition at 5 min, 10 µM (CYP2C9): 2.5%
SMILES: COC1CN(c2ccc(N3CCN(C[C@H]4CN(c5ccc(C#N)c6ncccc56)C[C@@H](C)O4)CC3)cn2)CC1N (stereo partly drawn) [Example 43, 5-[(2S,6R)-2-[[4-[6-(3-amino-4-methoxy-pyrrolidin-1-yl)-3-pyridyl]piperazin-1-yl]methyl]-6-methyl-morpholin-4-yl]quinoline-8-carbonitrile]

inhibition at 5 min, 10 µM (CYP2C9): -3.5%
SMILES: C[C@@H]1CN(c2ccc(C#N)c3ncccc23)C[C@H](CN2CCN(c3nc(N4CCNCC4)ncc3F)CC2)O1 [Example 45, 5-[(2S,6R)-2-[[4-(5-fluoro-2-piperazin-1-yl-pyrimidin-4-yl)piperazin-1-yl]methyl]-6-methyl-morpholin-4-yl]quinoline-8-carbonitrile]
